In general, IC50 refers to the concentration that gives 50% inhibition. A higher IC50 goes with a need for much substance. The melting point is the temperature of the solid-liquid transition.

In data set [1] the test system is 20-HETE synthase derived from rat kidney microsome. In words: Inhibitory effect of 20-HETE synthase derived from rat kidney microsome. It counts as biochemical. Particulars: SHR rat kidney microsome; for IC50: concentration at which 20-HETE production was inhibited to 50%; for Inhibition (1 µM): inhibition rate of 20-HETE production, subject compound 1 μM, 3H-arachidonic acid, NADPH, 1.5 hours at 37° C., pH 7.4. On the procedure:
[Inhibitory Effect of 20-HETE Synthase Derived from Rat Kidney Microsome]
Regarding the compounds listed in the Table described above, their inhibitory activities on production of 20-HETE were examined.
This examination was carried out based on the method described in J. Pharmacol. Exp. Ther., Vol. 268, p. 474 (1994).
The subject compound in an amount of 1 μM was added to a 50 mM of 3-morpholinopropanesulfonic acid buffer (MOPS) (pH 7.4), containing 5 mM of magnesium chloride, and 1 mM of ethylenediaminetetraacetic acid (EDTA) disodium salt.
Subsequently, the rat kidney microsome fraction prepared from the kidney of a spontaneously hypertensive rat (male, 6 weeks of age) as an enzyme, [5,6,8,9,11,12,14,15] tritium-arachidonic acid (supplied by Amasham) as a substrate, and NADPH (supplied by Sigma) as a coenzyme were added, and were reacted for 1.5 hours at 37° C.
After the reaction was quenched by adding formic acid (supplied by Wako Pure Chemical Industries Ltd.) to the reaction solution, acetonitrile (final concentration of 50%) was added thereto, and the mixture was allowed to stand for 1.5 hours at room temperature. The amount of 20-HETE production was measured by using a high performance liquid chromatography having a detector for radioactive substances (supplied by Gilson), equipped with an ODS column (Biocyl C18, supplied by Bio-rad).
Setting an amount of 20-HETE production to 100% when no subject compound was added, the inhibition rate (%) was calculated from the amount of 20-HETE production when a subject compound was added.
In addition, setting an amount of 20-HETE production to 100% when no subject compound was added, the concentration of the subject compound at which the production of the 20-HETE was inhibited to 50% when the subject compound is added (IC50 value) was also calculated.

Molecule `O/N=C/Nc1ccc(OCCc2ccccn2)nc1` [Comp. 5] returned a melting point of 128.5 to 130 °C. The molecule further displayed an IC50 in data set [1] of 14.9 nM.
In turn, `COCCOc1ccc(N/C=N/O)cn1` [Comp. 7] returned a melting point of 104.5 to 106 °C. Moreover, in data set [1], the IC50 was found to be 781 nM and the “Inhibition (1 µM)” value came out at 41.9%.
The corresponding values for `CC(C)Oc1ccc(N/C=N/O)cn1` [Comp. 8] are 116.5 to 117 °C, 603 nM and 71.0%.
On the same counts, the results for `O/N=C/Nc1ccc(OCc2ccccc2)nc1` [Comp. 9] are 163.5 to 164 °C, 9.1 nM and 82.9%.
On the same counts, the results for `CCCCOc1ccc(N/C=N/O)cn1` [Comp. 10] are 127 to 128 °C, 167 nM and 106.3%.
The molecule `C/C=C/COc1ccc(N/C=N/O)cn1` [Comp. 45] gave a melting point of 143 to 144.5 °C. For the same molecule, in data set [1], the IC50 was 10.7 nM and the “Inhibition (1 µM)” value turned out to be 80.3%.
On the same counts, the results for `CC#CCCOc1ccc(N/C=N/O)cn1` [Comp. 46] are 151 to 152 °C, 9.8 nM and 89.9%.
On the same counts, the results for `CC/C=C/COc1ccc(N/C=N/O)cn1` [Comp. 47] are 82 to 84 °C, 45.4 nM and 99.2%.
Molecule `CC(C)CCOc1ccc(N/C=N/O)cn1` [Comp. 53] showed a melting point of 123 to 125 °C. Also, in data set [1], the half-maximal inhibitory concentration (IC50) was determined as 6.8 nM and the “Inhibition (1 µM)” value is 108.5%.
The corresponding values for `C=CCCCOc1ccc(N/C=N/O)cn1` [Comp. 54] are 120 to 122 °C, 5.9 nM and 111.7%.
As for `C=CCCOc1ccc(N/C=N/O)cn1` [Comp. 55], the melting point fell in the range of 119 to 120 °C. In addition, in data set [1], the “Inhibition (1 µM)” value worked out at 87.3%.
For the molecule `C#CCCCOc1ccc(N/C=N/O)cn1` [Comp. 56], the melting point lay within 124.5 to 125.5 °C. Further, in data set [1], the midpoint of inhibition, the IC50, lay at 14.7 nM and the “Inhibition (1 µM)” value amounted to 102.1%.
On the same counts, the results for `CCOCCCOc1ccc(N/C=N/O)cn1` [Comp. 59] are 99 to 100 °C, 4.4 nM and 109.6%.
The corresponding values for `CCCCOCCOc1ccc(N/C=N/O)cn1` [Comp. 61] are 113 to 114.5 °C, 13.1 nM and 99.8%.
The corresponding values for `CC#CCOc1ccc(N/C=N/O)cn1` [Comp. 65, N-[2-(2-butyn-1-oxy)pyridin-5-yl]-N′-hydroxyformamidine] are 155.5 to 157 °C, 68.2 nM and 86.9%.
Take `COc1ccccc1CCOc1ccc(N/C=N/O)cn1` [Comp. 69]: the melting point lay in the range of 159.5 to 161 °C. Besides, in data set [1], the 50% inhibitory concentration (IC50) amounted to 6.5 nM and the “Inhibition (1 µM)” value came out at 102.8%.
Turning to `COc1ccccc1COc1ccc(N/C=N/O)cn1` [Comp. 72], the melting point fell in the range of 146.5 to 147.5 °C. In data set [1], it took 59 nM to reach half-maximal inhibition (IC50) and the “Inhibition (1 µM)” value was 92.9%.
The corresponding values for `O/N=C/Nc1ccc(OCc2cc(F)ccc2F)nc1` [Comp. 73] are 158.5 to 159.5 °C, 6.4 nM and 105.0%.
On the same counts, the results for `COc1ccc(COc2ccc(N/C=N/O)cn2)cc1` [Comp. 77] are 164.5 to 165.5 °C, 3.3 nM and 100.3%.
Regarding `COc1cccc(COc2ccc(N/C=N/O)cn2)c1` [Comp. 78], the melting point was 126 to 127 °C. Also, in data set [1], the half-inhibitory concentration (IC50) is 4.2 nM and the “Inhibition (1 µM)” value was determined as 100.2%.
On the same counts, the results for `O/N=C/Nc1ccc(OCc2ccc(F)cc2)nc1` [Comp. 80] are 166.5 to 167.5 °C, 3.9 nM and 102.9%.
On the same counts, the results for `N#Cc1cccc(COc2ccc(N/C=N/O)cn2)c1` [Comp. 81] are 166.5 to 167 °C, 1.7 nM and 104.4%.
On the same counts, the results for `COc1cccc(COc2ccc(N/C=N/O)cn2)c1OC` [Comp. 82] are 128.5 to 129 °C, 60.1 nM and 104.5%.
`O/N=C/Nc1ccc(OCC2COCO2)nc1` (stereo not drawn) [Comp. 87] had a melting point of 186.5 to 187 °C. In data set [1], the midpoint of inhibition, the IC50, lay at 264 nM and the “Inhibition (1 µM)” value amounted to 87.0%.
Take `O/N=C/Nc1ccc(OCCCn2cccc2)nc1` [Comp. 91]: the melting point was in the range of 140 to 141 °C. For the same molecule, in data set [1], it took 6.4 nM to reach half-maximal inhibition (IC50) and the “Inhibition (1 µM)” value was determined as 103.0%.
Molecule `CSCCOc1ccc(N/C=N/O)cn1` [Comp. 92] gave a melting point of 111.5 to 112 °C. In data set [1], the IC50 turned out to be 71.9 nM and the “Inhibition (1 µM)” value worked out at 87.6%.
On the same counts, the results for `CSCCCOc1ccc(N/C=N/O)cn1` [Comp. 93] are 109 to 111 °C, 6.6 nM and 97.4%.
For `O/N=C/Nc1ccc(OCCOc2ccccc2)nc1` [Comp. 94], the melting point was in the range of 153 to 154 °C. Besides, in data set [1], the IC50 was 3.2 nM and the “Inhibition (1 µM)” value is reported as 100.3%.
On the same counts, the results for `O/N=C/Nc1ccc(OCC2CCCO2)nc1` (stereo not drawn) [Comp. 96] are 114 to 115 °C, 140 nM and 92.3%.
On the same counts, the results for `O/N=C/Nc1ccc(OCC2CCCCO2)nc1` (stereo not drawn) [Comp. 97] are 149.5 to 152.5 °C, 58.1 nM and 85.5%.
On the same counts, the results for `O/N=C/Nc1ccc(OCCc2cccs2)nc1` [Comp. 98] are 137.5 to 138.5 °C, 4.3 nM and 100.7%.
In turn, `O/N=C/Nc1ccc(OCCc2ccsc2)nc1` [Comp. 99] gave a melting point of 138 to 140 °C. Moreover, in data set [1], it took 1.9 nM to reach half-maximal inhibition (IC50) and the “Inhibition (1 µM)” value was 95.4%.
On the same counts, the results for `CC(C)Sc1ccc(N/C=N/O)cn1` [Comp. 102] are 141 to 142 °C, 18.2 nM and 74.5%.
The molecule `O/N=C/Nc1ccc(SCc2ccccc2)nc1` [Comp. 104, N-[2-(benzylthio)pyridin-5-yl]-N′-hydroxyformamidine] had a melting point of 133 to 135 °C. Further, the “Inhibition (1 µM)” value in data set [1] came out at 103.6%.
Molecule `OCCSc1ccc(N/C=N/O)cn1` [Comp. 107] gave a melting point of 115 to 115.5 °C. In data set [1], the IC50 was found to be 294 nM and the “Inhibition (1 µM)” value was 83.1%.
The molecule `O/N=C/Nc1ccc(SC2CCCC2)nc1` [Comp. 109] showed a melting point of 153.5 to 154.5 °C. In data set [1], the concentration for half-maximal inhibition (IC50) is 11.5 nM and the “Inhibition (1 µM)” value was 82.1%.
`O/N=C/Nc1ccc(SCc2ccco2)nc1` [Comp. 110] had a melting point of 140.5 to 141.5 °C. Besides, in data set [1], the IC50 was found to be 12.1 nM and the “Inhibition (1 µM)” value was found to be 85.7%.
The corresponding values for `CCC(C)Sc1ccc(N/C=N/O)cn1` (stereo not drawn) [Comp. 111] are 125.5 to 127.5 °C, 33.8 nM and 76.8%.
On the same counts, the results for `CC(C)(C)Sc1ccc(N/C=N/O)cn1` [Comp. 117] are 174.5 to 175 °C, 435 nM and 69.3%.
On the same counts, the results for `OCCCSc1ccc(N/C=N/O)cn1` [Comp. 120] are 105 to 105.5 °C, 117 nM and 102.0%.
Regarding `C#CCOc1ccc(N/C=N/O)cn1` [Comp. 121], the melting point was in the range of 143.5 to 144.5 °C. In addition, in data set [1], the IC50 is 400 nM and the “Inhibition (1 µM)” value is recorded as 99.8%.
On the same counts, the results for `CN(C)CC(C)(C)COc1ccc(N/C=N/O)cn1` [Comp. 123, N-[2-(3-dimethylamino-2,2-dimethylpropyl-1-oxy)pyridin-5-yl]-N′-hydroxyformamidine] are 74 to 76.5 °C, 0.6 nM and 97.5%.
Turning to `CCN(CC)CCCC(C)Oc1ccc(N/C=N/O)cn1` (stereo not drawn) [Comp. 130], the melting point is 122 °C (dec.).
The molecule `CN(C)CCOc1ccc(N/C=N/O)cn1` [Comp. 131] gave a melting point of 105 to 106 °C.
On the same count and under the same terms, the value for `CC(C)(COc1ccc(N/C=N/O)cn1)CN1CCCCC1` [Comp. 134] was 91 to 93 °C.
